We go through three molecules from ChEMBL document CHEMBL4837239, “Identification of Thieno[3,2-d]pyrimidine Derivatives as Dual Inhibitors of Focal Adhesion Kinase and FMS-like Tyrosine Kinase 3” (J Med Chem, 2021).

Calls of active or inactive are those of the source. The rule behind the calls is not given here.

The subject of data set [1] is BaF3. As to the kind of experiment: Antiproliferative activity against mouse Ba/F3 cells harbouring FLT3 ITD F691L mutant assessed as growth inhibition measured after 72 hrs by CellTiter-Glo assay. Type of data set: functional.
For data set [2], the system named is BaF3. In words: Antiproliferative activity against mouse Ba/F3 cells harbouring FLT3 ITD mutant assessed as growth inhibition measured after 72 hrs by CellTiter-Glo assay. Type of data set: functional.
The subject of data set [3] is BaF3. In words: Antiproliferative activity against mouse Ba/F3 cells harbouring FLT3 ITD D835Y mutant assessed as growth inhibition measured after 72 hrs by CellTiter-Glo assay. The class given is functional.
The subject of data set [4] is BaF3. As to the kind of experiment: Antiproliferative activity against mouse Ba/F3 cells harbouring FLT3 D835Y mutant assessed as growth inhibition measured after 72 hrs by CellTiter-Glo assay. Type of data set: functional.
Data set [5] deals with BaF3. As to the kind of experiment: Antiproliferative activity against mouse Ba/F3 cells harbouring FLT3 ITD F691I mutant assessed as growth inhibition measured after 72 hrs by CellTiter-Glo assay. The class given is functional.
Data set [6] deals with BaF3. As to the kind of experiment: Antiproliferative activity against mouse Ba/F3 cells assessed as growth inhibition measured after 72 hrs by CellTiter-Glo assay. Type of data set: functional.
The next data set deals with MV4-11. In words: In vivo antitumor activity against human MV4-11 cells xenografted in mouse assessed as tumor weight at 20 mg/kg, po relative to control. Type of data set: functional, organism-based.
For data set [7], the system named is MDA-MB-231. In words: Antiproliferative activity against human MDA-MB-231 cells assessed as growth inhibition measured after 72 hrs by CellTiter-Glo assay. The class given is functional.
The subject of data set [8] is MDA-MB-231. As to the kind of experiment: In vivo antitumor activity against human MDA-MB-231 cells xenografted in Balb/c mouse assessed as reduction in tumor weight at 40 to 70 mg/kg, po once daily measured for 16 days. Type of data set: functional, organism-based. The settings on record: dose 40-70 mg/kg, time 16.0 day.
The test system of data set [9] is MDA-MB-231. In words: Induction of apoptosis in human MDA-MB-231 cells assessed apoptotic cell death at 10 uM incubated for 24 hrs by Annexin-V/PI analysis. The class given is functional, cell-based.
In a further data set the target is CYP2D6 (Homo sapiens, UniProt P10635). In words: Inhibition of CYP2D6 (unknown origin) at 10 uM relative to control. The class given is ADME.
CYP2D6, sequence (P10635 whole entry): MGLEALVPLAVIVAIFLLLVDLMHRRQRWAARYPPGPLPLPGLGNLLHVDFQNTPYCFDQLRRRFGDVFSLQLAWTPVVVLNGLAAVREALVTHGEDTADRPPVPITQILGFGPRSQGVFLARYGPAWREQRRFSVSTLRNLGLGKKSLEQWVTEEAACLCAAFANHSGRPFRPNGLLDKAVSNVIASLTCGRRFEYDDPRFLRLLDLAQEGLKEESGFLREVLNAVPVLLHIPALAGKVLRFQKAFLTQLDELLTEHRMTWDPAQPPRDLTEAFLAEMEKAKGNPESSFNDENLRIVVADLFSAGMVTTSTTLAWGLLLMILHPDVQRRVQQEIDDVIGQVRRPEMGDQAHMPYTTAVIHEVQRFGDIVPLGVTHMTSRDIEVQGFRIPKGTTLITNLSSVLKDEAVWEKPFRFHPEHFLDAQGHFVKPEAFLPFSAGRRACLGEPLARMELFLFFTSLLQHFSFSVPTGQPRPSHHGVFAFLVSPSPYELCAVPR
The subject of data set [10] is MDA-MB-231. As to the kind of experiment: Induction of apoptosis in human MDA-MB-231 cells assessed as cleaved PARP at 0.1 to 10 uM incubated for 24 hrs by Western blot analysis. Type of data set: functional, cell-based. The settings on record: dose 0.1-10 µM.
Data set [11] has as its system MDA-MB-231. In words: Growth inhibition of anchorage-Independent human MDA-MB-231 cells assessed as decrease in number of colonies incubated for 72 hrs by MTT assay. The class given is functional, cell-based. The settings on record: dose 1-10 µM.
In data set [12] the test system is MDA-MB-231. In words: Induction of apoptosis in human MDA-MB-231 cells assessed as cleaved caspase-3 at 0.1 to 10 uM incubated for 24 hrs by Western blot analysis. Type of data set: functional, cell-based. The settings on record: dose 0.1-10 µM.
Data set [13] addresses T1, Mitogen-activated protein kinase; ERK1/ERK2 (Homo sapiens) (UniProt P27361+P28482). In words: Inhibition of ERK1/2 autophosphorylation in human HCT-116 cells at 0.5 to 5 uM incubated for 24 hrs by Western blot analysis. The class given is cell-based. The following applies: dose 0.5-5 µM.
The target in data set [14] is T1, Mitogen-activated protein kinase; ERK1/ERK2 (Homo sapiens). In words: Inhibition of ERK1/2 autophosphorylation in human MDA-MB-231 cells at 0.5 to 5 uM incubated for 24 hrs by Western blot analysis. The class given is cell-based. The settings on record: dose 0.5-5 µM.
The nature of data set [15]: Toxicity in Balb/c mouse xenografted with human MDA-MB-231 cells assessed as change in body weight at 40 to 70 mg/kg, po once daily measured for 16 days. The class given is organism-based. The following applies: in vivo, 384 h, dose 40-70 mg/kg, time 16 day.
Data set [16] deals with MDA-MB-231. In words: Antitumor activity against human MDA-MB-231 cells xenografted in Balb/c mouse assessed as decrease in ki67 at 40 to 70 mg/kg, po once daily measured for 16 days by Immunohistochemical analysis. The class given is functional, organism-based. The following applies: dose 40-70 mg/kg, time 16.0 day.
The subject of data set [17] is HCT-116. As to the kind of experiment: Induction of apoptosis in human HCT-116 cells assessed as cleaved PARP at 0.1 to 10 uM incubated for 24 hrs by Western blot analysis. The class given is functional, cell-based. The following applies: dose 0.1-10 µM.
Data set [18] deals with MDA-MB-231. In words: In vivo antitumor activity against human MDA-MB-231 cells xenografted in Balb/c mouse assessed as reduction in tumor mass at 40 to 70 mg/kg, po once daily measured for 16 days. Type of data set: functional, organism-based. The settings on record: dose 40-70 mg/kg, time 16.0 day.
The subject of data set [19] is HCT-116. As to the kind of experiment: Induction of apoptosis in human HCT-116 cells assessed as cleaved caspase-3 at 0.1 to 10 uM incubated for 24 hrs by Western blot analysis. The following applies: dose 0.1-10 µM. The class given is functional, cell-based.
In another data set the target is T2, CYP1A2 (Homo sapiens, UniProt P05177).
T2 sequence (P05177 whole entry): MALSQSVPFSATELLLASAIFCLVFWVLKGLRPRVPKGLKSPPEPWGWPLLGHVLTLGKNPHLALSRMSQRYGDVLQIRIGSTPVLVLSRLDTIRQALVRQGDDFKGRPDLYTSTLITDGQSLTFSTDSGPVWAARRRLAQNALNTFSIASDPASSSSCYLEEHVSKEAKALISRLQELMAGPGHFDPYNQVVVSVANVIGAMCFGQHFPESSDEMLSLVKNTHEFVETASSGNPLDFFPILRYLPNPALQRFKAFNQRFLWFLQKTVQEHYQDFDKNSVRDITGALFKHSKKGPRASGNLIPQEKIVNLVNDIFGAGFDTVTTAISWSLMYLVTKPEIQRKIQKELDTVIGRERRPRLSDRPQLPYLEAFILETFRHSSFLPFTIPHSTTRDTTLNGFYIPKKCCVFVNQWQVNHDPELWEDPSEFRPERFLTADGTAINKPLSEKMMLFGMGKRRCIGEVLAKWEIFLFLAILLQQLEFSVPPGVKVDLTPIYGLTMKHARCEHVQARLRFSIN
As to the kind of experiment: Inhibition of CYP1A2 (unknown origin) at 10 uM relative to control. Type of data set: ADME.

A further data set addresses CYP2C9 (Homo sapiens, UniProt P11712). In words: Inhibition of CYP2C9 (unknown origin) at 10 uM relative to control. The class given is ADME.
Data set [20] has as its system MDA-MB-231. As to the kind of experiment: In vivo antitumor activity against human MDA-MB-231 cells xenografted in Balb/c mouse assessed as tumor volume at 70 mg/kg, po once daily measured for 16 days (reference value: 600 mm^3). Type of data set: functional. The following applies: time 16.0 day.
Data set [21] deals with MDA-MB-231. In words: Antimetastatic activity against human MDA-MB-231 cells expressing firefly luciferase xenografted NSG orthotopic mouse model assessed as reduction in luminescence intensity at chest region at 70 mg/kg, po once daily measured for 2 weeks. The class given is functional, organism-based.
Another data set has as its target CYP3A4 (Homo sapiens, UniProt P08684). In words: Inhibition of CYP3A4 (unknown origin) at 10 uM relative to control. The class given is ADME.
Data set [22] has as its system MDA-MB-231. As to the kind of experiment: In vivo antitumor activity against human MDA-MB-231 cells xenografted in Balb/c mouse assessed as tumor volume at 40 mg/kg, po once daily measured for 16 days (reference value: 600 mm^3). The class given is functional. The settings on record: time 16.0 day.
Data set [23] deals with HCT-116. In words: Antiproliferative activity against human HCT-116 cells assessed as growth inhibition measured after 72 hrs by CellTiter-Glo assay. Type of data set: functional.
Data set [24] is described as follows: Antiproliferative activity against human A375P cells assessed as growth inhibition measured after 72 hrs by CellTiter-Glo assay. The class given is functional.
A short description of data set [25]: Metabolic stability in human liver microsomes assessed as compound remaining at 1 uM measured after 1 hr. The class given is ADME, Microsome. The following applies: read-out: Stabilty.
Data set [26] can be described thus: Inhibition of FLT3 D835Y (unknown origin). Further details: species or system Homo sapiens.
Data set [27] is described as follows: Inhibition of FYK Y379 mutant phosphorylation in human MDA-MB-231 cells by in-cell western blot assay. Type of data set: cell-based.
The target of a further data set is Focal adhesion kinase 1 (Homo sapiens, UniProt Q05397). In words: Inhibition of recombinant FAK (unknown origin) by radiometric kinase assay.
Focal adhesion kinase 1, sequence (Q05397 whole entry): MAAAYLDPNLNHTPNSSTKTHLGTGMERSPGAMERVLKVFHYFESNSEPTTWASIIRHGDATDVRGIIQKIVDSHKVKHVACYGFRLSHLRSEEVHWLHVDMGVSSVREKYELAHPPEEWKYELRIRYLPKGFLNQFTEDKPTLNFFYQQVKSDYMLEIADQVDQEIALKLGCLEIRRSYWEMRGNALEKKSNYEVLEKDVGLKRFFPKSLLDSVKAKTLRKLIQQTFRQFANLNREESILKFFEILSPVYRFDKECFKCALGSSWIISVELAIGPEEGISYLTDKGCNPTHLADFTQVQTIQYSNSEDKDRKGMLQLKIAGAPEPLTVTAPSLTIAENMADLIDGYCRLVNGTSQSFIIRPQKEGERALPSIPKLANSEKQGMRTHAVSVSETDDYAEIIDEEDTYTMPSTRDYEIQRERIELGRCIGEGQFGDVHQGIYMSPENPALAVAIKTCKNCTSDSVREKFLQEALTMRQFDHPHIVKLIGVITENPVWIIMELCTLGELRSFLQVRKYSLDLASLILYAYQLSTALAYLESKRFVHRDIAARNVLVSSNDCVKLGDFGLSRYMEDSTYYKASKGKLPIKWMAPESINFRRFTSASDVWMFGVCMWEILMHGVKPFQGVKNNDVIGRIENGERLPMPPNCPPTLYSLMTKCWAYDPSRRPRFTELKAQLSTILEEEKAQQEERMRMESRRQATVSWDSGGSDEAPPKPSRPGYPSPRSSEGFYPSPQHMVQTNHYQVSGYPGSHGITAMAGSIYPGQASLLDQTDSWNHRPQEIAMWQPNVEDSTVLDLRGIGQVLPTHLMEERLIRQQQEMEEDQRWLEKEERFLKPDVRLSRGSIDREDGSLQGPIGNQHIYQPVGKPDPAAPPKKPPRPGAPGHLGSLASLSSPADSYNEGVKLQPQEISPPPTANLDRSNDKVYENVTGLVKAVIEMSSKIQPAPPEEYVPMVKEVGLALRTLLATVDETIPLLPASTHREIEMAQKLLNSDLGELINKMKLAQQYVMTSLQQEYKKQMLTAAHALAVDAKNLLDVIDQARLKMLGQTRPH

T1 sequence (P27361 whole entry, looked up): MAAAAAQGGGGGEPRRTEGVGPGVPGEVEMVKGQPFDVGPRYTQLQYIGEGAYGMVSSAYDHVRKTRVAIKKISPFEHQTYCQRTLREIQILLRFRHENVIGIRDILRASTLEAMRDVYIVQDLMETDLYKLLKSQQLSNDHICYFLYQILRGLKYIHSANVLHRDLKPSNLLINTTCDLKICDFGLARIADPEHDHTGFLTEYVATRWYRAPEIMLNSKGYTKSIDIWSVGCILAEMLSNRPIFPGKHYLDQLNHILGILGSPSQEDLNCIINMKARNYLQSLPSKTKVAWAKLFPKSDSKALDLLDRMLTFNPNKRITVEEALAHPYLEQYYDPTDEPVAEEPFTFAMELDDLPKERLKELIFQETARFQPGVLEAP
T1 sequence (P28482 whole entry, looked up): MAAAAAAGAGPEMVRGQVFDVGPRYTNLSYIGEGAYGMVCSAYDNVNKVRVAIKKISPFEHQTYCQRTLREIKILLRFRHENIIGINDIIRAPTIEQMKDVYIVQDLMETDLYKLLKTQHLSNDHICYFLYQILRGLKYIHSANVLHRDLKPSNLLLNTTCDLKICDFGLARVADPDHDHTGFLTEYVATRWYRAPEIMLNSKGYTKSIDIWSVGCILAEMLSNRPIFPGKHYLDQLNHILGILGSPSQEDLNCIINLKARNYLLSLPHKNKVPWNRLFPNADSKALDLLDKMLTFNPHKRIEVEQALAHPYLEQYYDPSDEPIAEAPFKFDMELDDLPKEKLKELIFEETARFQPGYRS
CYP2C9, sequence (P11712 whole entry): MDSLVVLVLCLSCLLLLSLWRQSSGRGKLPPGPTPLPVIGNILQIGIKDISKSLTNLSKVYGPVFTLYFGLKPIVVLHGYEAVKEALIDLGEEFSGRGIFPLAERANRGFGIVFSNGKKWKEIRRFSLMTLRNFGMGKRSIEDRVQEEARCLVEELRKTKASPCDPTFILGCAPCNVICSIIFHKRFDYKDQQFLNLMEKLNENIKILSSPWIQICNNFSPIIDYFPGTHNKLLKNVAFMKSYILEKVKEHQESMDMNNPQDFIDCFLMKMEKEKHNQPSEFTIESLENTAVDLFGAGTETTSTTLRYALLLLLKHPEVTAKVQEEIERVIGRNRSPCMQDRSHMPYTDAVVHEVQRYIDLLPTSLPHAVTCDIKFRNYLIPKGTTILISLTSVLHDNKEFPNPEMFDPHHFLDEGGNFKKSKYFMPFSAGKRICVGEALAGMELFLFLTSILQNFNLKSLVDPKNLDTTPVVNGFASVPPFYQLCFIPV
CYP3A4, sequence (P08684 whole entry): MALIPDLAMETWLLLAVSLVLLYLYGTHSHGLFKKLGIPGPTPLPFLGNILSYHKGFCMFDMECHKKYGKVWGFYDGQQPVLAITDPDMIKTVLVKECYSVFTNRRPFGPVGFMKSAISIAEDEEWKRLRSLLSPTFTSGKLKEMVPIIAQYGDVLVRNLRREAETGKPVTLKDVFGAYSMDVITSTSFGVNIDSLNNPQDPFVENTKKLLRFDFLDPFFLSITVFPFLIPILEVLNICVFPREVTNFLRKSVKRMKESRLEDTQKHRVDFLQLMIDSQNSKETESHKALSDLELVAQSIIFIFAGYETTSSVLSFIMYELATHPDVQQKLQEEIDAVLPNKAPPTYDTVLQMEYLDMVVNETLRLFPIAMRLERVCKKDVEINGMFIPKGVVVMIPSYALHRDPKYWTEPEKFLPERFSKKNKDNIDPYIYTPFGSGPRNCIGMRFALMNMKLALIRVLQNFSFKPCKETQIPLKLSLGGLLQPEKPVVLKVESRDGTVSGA

With `CNC(=O)c1cc(Oc2ccc(NC(=O)Nc3ccc(Cl)c(C(F)(F)F)c3)cc2)ccn1` [SORAFENIB], the 50% growth inhibitory concentration (GI50) with BaF3 [1] (Mus musculus, BaF3) was found to be 1540 nM; in the data set with BaF3 [2] (Mus musculus, BaF3) it was 2.8 nM; in the data set on BaF3 [3] (Mus musculus, BaF3) it was 206 nM; with BaF3 [4] (Mus musculus, BaF3) it was 56.5 nM; with BaF3 [5] (Mus musculus, BaF3), 2640 nM; in the data set with BaF3 [6] (Mus musculus, BaF3), 5420 nM. The result with MV4-11 was Active.

In the case of `CN(c1ncccc1CNc1nc(Nc2ccc3c(c2)CC(=O)N3)ncc1C(F)(F)F)S(C)(=O)=O` [PF-00562271], the concentration for 50% growth inhibition (GI50) is 1950 nM in the data set on MDA-MB-231 [7] (Homo sapiens, MDA-MB-231); 1140 nM with HCT-116 [23] (Homo sapiens, HCT-116); 10200 nM in data set [24] (Homo sapiens, A375P). In addition, the outcome in the data set on MDA-MB-231 [8], in the data set on MDA-MB-231 [9], in the data set with MDA-MB-231 [10], with MDA-MB-231 [12], in the data set on MDA-MB-231 [16] and with HCT-116 [17] was Active. In addition, the outcome with MDA-MB-231 [18], in the data set with HCT-116 [19], in the data set with MDA-MB-231 [20], with MDA-MB-231 [21] and in the data set with MDA-MB-231 [22] was Active. In addition, the inhibition at 10 µM against CYP2D6 was determined as 90.5%; at CYP1A2, 91.2%; at CYP2C9 it was 42.7%; on CYP3A4, 47.2%. Besides, the “growth inhibition (GI)” value in the data set with MDA-MB-231 [11] was “Active”. Further, the inhibition result in [13] and in data set [14] was “inactive” each time. Besides, the Activity entry in data set [15] was “Non-Toxic”.

In the case of `COc1cc(Nc2ncc3scc(-c4cccc(NS(C)(=O)=O)c4)c3n2)cc(OC)c1OC`, the GI50 in the data set on MDA-MB-231 [7] is 410 nM; with BaF3 [1] it was 25.3 nM; in the data set on BaF3 [2] it was 3.1 nM; in the data set with BaF3 [3], 1.3 nM; in the data set on BaF3 [4], 1.3 nM; in the data set on BaF3 [5], 325 nM. Also, the GI50 came out at 586 nM in the data set with BaF3 [6], 430 nM in the data set with HCT-116 [23] and 200 nM in data set [24]. The remaining at 1 h, 1 µM in data set [25] was found to be 39.7%. Further, the results for the concentration for half-maximal inhibition (IC50) (in [26]; in [27]; on Focal adhesion kinase 1) were below 0.5 nM, 260 nM and 7 nM, respectively.
